Measurements as given in ChEMBL document CHEMBL5325400 (Eur J Med Chem, 2023).

Key:
Assay type in all cases: functional, cell-based
SK-OV-3 = experiment: Antiproliferative activity against human SK-OV-3 cells assessed as inhibition of cell growth measured after 48 hrs by MTT assay; settings: SK-OV-3, 48 h
HepG2 = experiment: Antiproliferative activity against human HepG2 cells assessed as inhibition of cell growth measured after 48 hrs by MTT assay; settings: HepG2, 48 h
MDA-MB-231 = experiment: Antiproliferative activity against human MDA-MB-231 cells assessed as inhibition of cell growth measured after 48 hrs by MTT assay; settings: MDA-MB-231, 48 h
HeLa = experiment: Antiproliferative activity against human HeLa cells assessed as inhibition of cell growth measured after 48 hrs by MTT assay
B16-F10 = experiment: Antiproliferative activity against mouse B16-F10 cells assessed as inhibition of cell growth measured after 48 hrs by MTT assay; settings: B16-F10, 48 h
A549 = experiment: Antiproliferative activity against human A549 cells assessed as inhibition of cell growth measured after 48 hrs by MTT assay; settings: A549, 48 h

| SMILES | IC50 (SK-OV-3) [nM] | IC50 (HepG2) [nM] | IC50 (MDA-MB-231) [nM] | IC50 (HeLa) [nM] | IC50 (B16-F10) [nM] | IC50 (A549) [nM] |
| --- | --- | --- | --- | --- | --- | --- |
| COc1cc(Nc2cc(Nc3cccc(NC(=O)C4CC4)c3)ncn2)ccc1F | 42.7 | 342 | 107 | 65.9 | 199 | 218 |
| COc1cccc(Nc2cc(Nc3cccc(C(=O)NC4CCCCC4)c3)ncn2)c1 | > 1000 | > 1000 | > 1000 | > 1000 | > 1000 | > 1000 |
| COc1cccc(Nc2nc(Nc3cccc(NC(=O)C4CC4)c3)nc3ccsc23)c1 | > 1000 | > 1000 | 610 | > 1000 | > 1000 | > 1000 |
| O=C(Nc1cccc(Nc2nc(Nc3cccc(C(F)(F)F)c3)nc3ccccc23)c1)C1CC1 | > 1000 | > 1000 | > 1000 | > 1000 | > 1000 | > 1000 |
| O=C(Nc1cccc(Nc2cc(N3CCc4ccccc43)ncn2)c1)C1CC1 | > 1000 | > 1000 | > 1000 | > 1000 | > 1000 | > 1000 |
| O=C(Nc1cccc(Nc2nc(Nc3cccc(C(F)(F)F)c3)c3ccccc3n2)c1)C1CC1 | > 1000 | > 1000 | > 1000 | > 1000 | > 1000 | > 1000 |
| COc1cccc(Nc2cc(Nc3cccc(NC(=O)C4CC4)c3)ncn2)c1F | 26.8 | 313 | 31.4 | 45.7 | 181 | 4.8 |
| CCOc1cccc(Nc2cc(Nc3cccc(NC(=O)C4CC4)c3)ncn2)c1 | 17.4 | 128 | 1.9 | 613 | 20.7 | 173 |
| COc1cccc(Nc2nc(Nc3cccc(NC(=O)C4CC4)c3)c3sccc3n2)c1 | > 1000 | > 1000 | > 1000 | > 1000 | > 1000 | > 1000 |
| Cc1cccc2c1CCN2c1cc(Nc2cccc(NC(=O)C3CC3)c2)ncn1 | > 1000 | > 1000 | > 1000 | > 1000 | > 1000 | > 1000 |
| Cc1cc(NC(=O)C2CC2)cc(Nc2cc(Nc3cccc(C(F)(F)F)c3)ncn2)c1 | 31.7 | 201 | > 1000 | 499 | 443 | > 1000 |
| O=C(Nc1cccc(Nc2cc(N3CCOc4ccccc43)ncn2)c1)C1CC1 | 84.2 | 34.8 | 563 | 349 | > 1000 | > 1000 |
| COc1cccc(Nc2cc(Nc3cccc(NC(=O)C4CC4)c3)nc(C)n2)c1 | 156 | 93.2 | > 1000 | 120 | 9.6 | > 1000 |
| COc1cccc(Nc2nc(Nc3cccc(NC(=O)C4CC4)c3)nc3sccc23)c1 | > 1000 | > 1000 | > 1000 | > 1000 | > 1000 | > 1000 |
| CCC(=O)Nc1cccc(Nc2cc(Nc3cccc(OC)c3)ncn2)c1 | 14.1 | 99.3 | > 1000 | 6.7 | 392 | 273 |
| O=C(Nc1cccc(Nc2nc(Nc3cccc(C(F)(F)F)c3)nc3sccc23)c1)C1CC1 | > 1000 | > 1000 | > 1000 | > 1000 | > 1000 | > 1000 |
| COc1ccc(C)c(Nc2cc(Nc3cccc(NC(=O)C4CC4)c3)ncn2)c1 | 56.9 | 35.2 | 48.8 | 17.9 | 2.3 | 2 |
| COc1cccc(Nc2cc(Nc3cccc(OC)c3)ncn2)c1 | > 1000 | > 1000 | > 1000 | > 1000 | > 1000 | > 1000 |
| COc1cccc(Nc2cc(Nc3cccc(C(=O)NC4CC4)c3)ncn2)c1 | > 1000 | > 1000 | > 1000 | > 1000 | > 1000 | > 1000 |
| COc1cccc(Nc2cc(Nc3cccc(NC(=O)C4CCCCC4)c3)ncn2)c1 | 23.6 | 166 | > 1000 | 52.5 | 315 | 83.2 |
| COc1cccc(Nc2cc(Nc3cccc(NC(=O)C4CCCC4)c3)ncn2)c1 | 9.6 | 158 | 105 | 41.5 | > 1000 | 198 |
